Common to all, as to test: DTP human tumour cell line panel, 48 h
Assay [1] concerns ACHN renal.
In assay [2] the test system is DU-145 prostate.
In assay [3] the test system is EKVX NSCLC.
Assay [4] relates to HL-60(TB) leukemia.
Assay [5] deals with LOX IMVI melanoma.
Assay [6] concerns MDA-MB-231 breast.
For assay [7], the system named is NCI-H460 lung.
Assay [8] concerns PC-3 prostate.
Assay [9] has as its system SF-539 CNS.
Assay [10] relates to SK-MEL-5 melanoma.
The subject of assay [11] is SW-620 colon.
Assay [12] concerns U251 CNS.
Assay [13] has as its system HT29 colon.

Several values for one entry are separate records, joined by “and”; a condition that tells them apart may be missing. Identical values can stand only once.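 In this assay, cells in 96-well plates receive the compound at five concentrations for 48 hours. Endpoints are linearly interpolated between the surrounding concentrations. GI50 marks 50% less growth. TGI is the concentration that stops growth completely.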

The TGI is the concentration giving total growth inhibition. A high value points to less potent growth arrest. On to `CCc1ccc2oc(-c3cc(O)c(-c4nc5cc(CC)ccc5o4)cc3O)nc2c1`, for which the concentration for total growth inhibition (TGI) in [1], in assay [2], in [3], in assay [4], in assay [5] and in assay [6] was > 100 µM in each case. Moreover, the TGI in assay [7], in assay [8], in assay [9], in assay [10], in [11] and in [12] was > 100 µM throughout.

As to `O=C(O)c1ccc(S(=O)(=O)c2ccccc2[N+](=O)[O-])cc1`, the TGI in [1], in assay [2], in [3], in assay [4], in [13] and in assay [5] was > 10 µM throughout. The TGI in assay [6], in assay [7], in [8], in assay [9], in [10] and in [11] was > 10 µM in each case. For the same compound, the TGI in assay [12] was > 10 µM.

In the case of `CC(=O)O[C@H]1C#C/C=C\C#CC[C@@H]2C(=O)N[C@@H]12`, the TGI in assay [1] is 52.2 µM; in assay [2], 62 µM; in assay [3], > 100 µM; in [4], 33.5 µM; in assay [13], > 100 µM; in assay [5] it was > 50.2 µM. For the same compound, the total growth inhibition concentration (TGI) in assay [6] is > 100 µM; in assay [7] it was 37.6 µM; in assay [8], > 100 µM; in [9], 5.39 µM; in assay [10] it was > 100 µM; in assay [11] it was > 100 µM. In addition, the TGI in [12] is > 100 µM.

`O=c1c2ncn(COCCCl)c2n(-c2ccccc2)c(=S)n1-c1ccccc1`: the total growth inhibition concentration (TGI) in assay [1], in [2], in assay [3], in assay [4], in [13] and in [5] was > 100 µM each time. Moreover, the TGI in assay [6], in assay [7], in assay [8], in assay [9], in [10] and in assay [11] was > 100 µM each time. Moreover, the TGI in [12] was > 100 µM.

Regarding `Cc1ccc(/C(O)=C/C(=O)C(=O)/C=C(\O)c2ccc(C)cc2C)c(C)c1`, the TGI in assay [1] is 3.65 µM; in assay [2], 5.43 µM; in [3], 5.56 µM; in assay [4] it was 0.58 µM; in assay [13], > 20.8 µM; in assay [5], 5.96 µM. Also, the concentration for total growth inhibition (TGI) turned out to be 4.83 µM in assay [6]; 3.47 µM in assay [7]; 5.64 µM in assay [8]; 3.56 µM in assay [9]; 3.26 µM in assay [10]; 6.88 µM in assay [11]. The compound also had a concentration for total growth inhibition (TGI) in assay [12] of 3.49 µM.

As for `CCn1nc2c3c(ncn3C(C)(C)O2)c1=O`, the TGI in assay [1], in assay [2], in assay [3], in assay [4], in assay [13] and in [5] was > 100 µM each time. Also, the TGI in [6], in assay [7], in assay [8], in [10], in assay [11] and in [12] was > 100 µM each time.

In general, GI50 refers to the concentration giving 50% growth inhibition. As to `COc1cc(CNc2ccc(SC)cc2)cc(OC)c1OC`, the GI50 was 22.8 µM and 11 µM in assay [1]; 24.8 µM and 7.82 µM in assay [2]; 15 µM and 6.23 µM in assay [6]; 11.4 µM and 3.06 µM in assay [9]; 11.6 µM and 4.51 µM in [10]; 10.8 µM and 4.13 µM in [12]. Also, the concentration for total growth inhibition (TGI) in assay [1] was > 100 µM; in [2] it was > 95.7 µM; in assay [3] it was > 100 µM; in [4] it was 42.6 µM and 40.2 µM; in assay [13], 29.9 µM and 14.5 µM; in assay [5] it was > 59.7 µM and 45.9 µM. In addition, the TGI in assay [6] is > 100 µM; in [7] it was > 100 µM; in assay [8], > 100 µM and 47.7 µM; in [9], 44.4 µM and 12.3 µM; in assay [10], 59.6 µM and 16 µM; in [11], > 100 µM. Besides, in [12], the concentration for total growth inhibition (TGI) was 61.6 µM and 32.9 µM.

For the compound `c1cc2nnnn2nc1N1CCCC1`, the TGI in [1], in assay [2], in assay [4], in assay [13], in assay [5] and in [6] was > 100 µM in each case. Besides, the TGI in assay [7], in [8], in assay [9], in [10], in [11] and in [12] was > 100 µM each time.

As to `Cc1cc(C2(O)C=C(C(C)(C)C)C(=O)C(C(C)(C)C)=C2)c(C)cc1C1(O)C=C(C(C)(C)C)C(=O)C(C(C)(C)C)=C1`, the TGI in assay [1], in assay [2], in assay [3], in assay [4], in assay [13] and in assay [5] was > 100 µM in each case. The total growth inhibition concentration (TGI) in [6], in [8], in [9], in [10], in assay [11] and in assay [12] was > 100 µM throughout.

As to `CN(O)C(=O)c1cccc(Cl)c1`, the TGI in [1], in assay [2], in [3], in assay [4], in [13] and in [5] was > 100 µM in each case. Besides, the total growth inhibition concentration (TGI) in assay [6], in assay [7], in [8], in assay [9], in assay [10] and in assay [11] was > 100 µM each time. In addition, in assay [12], the concentration for total growth inhibition (TGI) is > 100 µM.

On to `CCOC(=O)/C=C(/C(=O)OCC)n1ccc(N)nc1=O`, for which the TGI in [1], in assay [2], in assay [3], in assay [4], in assay [13] and in [5] was > 100 µM throughout. Moreover, the TGI in assay [6], in assay [7], in [8], in assay [9], in assay [10] and in assay [11] was > 100 µM throughout. For the same compound, the TGI in assay [12] was > 100 µM.

The record behind these values is PubChem BioAssay (NCI).
